From the METLIN SMRT retention time set (Domingo-Almenara et al. 2019)

Assay: gradient 5% acetonitrile 3 min, to 50% in 2 min, to 85% in 15 min, held 3 min, 100 µL/min
Conditions: column: Zorbax Extend-C18 2.1 x 50 mm; eluents: water / acetonitrile, 0.1% formic acid
Procedure, shortened: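 Retention times of pure standards were taken from adduct peaks that were selected by computer and manually inspected. Over 3 months, mixtures of ~100 molecules were run by HPLC–quadrupole time-of-flight mass spectrometry in positive and negative ionization mode. The Zorbax Extend-C18 column (2.1 × 50 mm, 1.8 μm) ran at 100 μL/min in water and acetonitrile, each containing 0.1% formic acid, with 40 μL dead volume and 900 μL dwell volume.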

SMILES | RP-LC retention time [s]
CC(=O)N1CCc2cc(C(=O)N3CCCC3)ccc21 | 869
CN1CCc2nc(C(=O)N[C@@H]3C[C@@H](C(=O)N(C)C)CC[C@@H]3NC(=O)C(=O)Nc3ccc(Cl)cn3)sc2C1 | 652
COc1ccc(-c2nnc(Cc3nc(-c4ccc(C)cc4)no3)o2)cc1 | 1010
CCn1cc(-c2nc(C)c(C(=O)NCc3ccccn3)s2)c2cccnc21 | 946
COc1ccc(C(O)CN2CCN(c3ccccc3)CC2)cc1OC (stereo not drawn) | 607
CC(C)Cn1cc(S(=O)(=O)NCc2ccccc2F)c2cccnc21 | 932
COc1ccc(-c2ccc(=O)n(Cc3nc(-c4ccccn4)no3)n2)cc1 | 780
O=C(Nc1ccc2c(c1)OCCO2)c1ccc(-c2ccsc2)nc1 | 864
CC1CS(=O)(=O)N(c2ccc(C(=O)NCCc3c[nH]c4ccccc34)c(Cl)c2)C1=O (stereo not drawn) | 809
O=c1n(Cc2cccc(C(F)(F)F)c2)nc2ccc(S(=O)(=O)N3CCCCC3)cn12 | 1030
O=C(Nc1cccc(Cl)c1Cl)C1(c2ccc(F)cc2)CC1 | 1280
Fc1ccc(-c2nnc(Cc3nc(Cc4ccccc4)no3)o2)cc1 | 931
CCCN1N=C(C(=O)N2CCC(C)CC2)S(=O)(=O)c2ccc(C)cc21 | 993
CC(C)Cc1ccc(S(=O)(=O)N2CCc3c(c(-c4nnc(-c5ccc(F)cc5)o4)nn3C)C2)cc1 | 1180
CN(C)CCNC(=O)C1CCN(c2cnc(N3CCSCC3)nc2)CC1 | 580
O=C(O)c1ccc(Nc2c(-c3ccccc3)nc3cnccn23)cc1 | 697
O=C(NCc1ccc(Cl)cc1)C(=O)NCC1(c2cccs2)CCCC1 | 1120
COc1ccc(C(=O)Cn2c(=O)n(Cc3ccc4c(c3)OCO4)c(=O)c3ncccc32)cc1 | 819
O=C(CCc1c(-c2ccccc2)nc2ccccn12)NCc1ccccc1F | 652
Cc1cc(C)cc(NC(=O)Cn2nc(N3CCCC(C)C3)c3ccccc3c2=O)c1 (stereo not drawn) | 1240
CCOc1ccccc1N1CCN(S(=O)(=O)c2nn(CC)cc2C(=O)NCC(=O)OC)CC1 | 896
O=C(c1cccs1)N1CCCC1c1nc(-c2ccccc2)n[nH]1 (stereo not drawn) | 704

SMILES | RP-LC retention time [s]
Cc1c(Cl)cccc1NC(=O)CSc1ccc(N2CCCC(C(=O)NC3CC3)C2)nn1 (stereo not drawn) | 645
Cc1ccc(-n2nc(C)c3sc(N4CCCC(C(=O)NC(C)(C)C)C4)nc32)cc1 (stereo not drawn) | 1170
O=C(Cn1cnc2c(sc3nc(-c4ccccc4)ccc32)c1=O)NCCC1=CCCCC1 | 1090
CCOC(=O)c1nc(NCc2ccc(OC)cc2OC)c2ccccc2n1 | 768
Cc1ccc(-c2nc3nc(C)cc(N4CCN(c5ccccn5)CC4)n3n2)cc1 | 629
O=C(NCCc1c[nH]c2ccccc12)c1csc(NS(=O)(=O)c2cccs2)n1 | 740
CC(C)NC(=O)c1ccc(-c2nc3cc(NS(=O)(=O)Cc4ccccc4F)ccc3n2C)cc1 | 677
O=C(CCc1nc(-c2ccc(N3CCCC3)cc2)no1)NCc1ccc2c(c1)OCO2 | 979
Cc1cc(C)cc(NS(=O)(=O)c2cc(-c3[nH]ncc3C(=O)N3CCCC3)oc2C)c1 | 746
COc1ncc(C(=O)NCc2ccccc2C(F)(F)F)cn1 | 783
Cc1nc(-c2noc(-c3ccncc3)n2)cn1CC(=O)Nc1ccc(F)cc1 | 833
CCOC(=O)Cc1csc(NC(=O)CN2CC(c3nc(C4CC4)no3)C2)n1 | 575
COc1cccc(-c2noc(Cn3c(=O)n(C(C)C)c(=O)c4ccccc43)n2)c1 | 1110
CC1(C(=O)NCc2ccccc2)CCCN(C(=O)Nc2ccc(Br)cc2)C1 (stereo not drawn) | 980
Cc1cccc(CNC(=O)c2cn3cccc(C)c3n2)c1 | 675
NC(=O)c1nnsc1-c1ccc(-c2snnc2C(N)=O)cc1 | 694
Cc1ccc(-c2coc(-c3ccc(NC(=O)c4ccc(Br)o4)cc3)n2)cc1 | 1230
Cc1ccc(S(=O)(=O)N2CCc3nn(CC(C)C)c(=O)n3CC2)cc1Cl | 880
O=C(c1cc(-c2ccccc2)n[nH]1)N1CCC2(CC1)N=C(c1ccccc1)NO2 | 785
Cc1ccc(Cn2cc(-c3ccncc3)cc2C(=O)NCc2cccnc2)cc1 | 581
COc1ccc(Br)cc1CNC(=O)Cn1cc(-c2nnco2)c2ccccc21 | 855
Cc1ccc(-c2nnc(CC(=O)NC3CCCCC3)o2)cc1 | 830

SMILES | RP-LC retention time [s]
O=C(NCCCN1CCOCC1)C1CCCN(c2ccc(=O)n(-c3cccc(Cl)c3)n2)C1 (stereo not drawn) | 610
CSc1ccc(-c2nc3nc(C)cc(C)n3c2Nc2c(C)cccc2C)cc1 | 808
Cc1cc(C)cc(NC(=O)Nc2ccc3nnc(C)n3c2)c1 | 661
CN(C)c1ccc(-c2nn3c(CSc4ccccc4)nnc3s2)cc1 | 1080
O=C(Nc1ccccc1)N1CCC(n2cnc3cc(Cl)ccc3c2=O)CC1 | 784
O=C(NCc1ccco1)C1CCN(C(=O)c2ncn3c2COC(c2ccccc2)C3)CC1 (stereo not drawn) | 699
COc1ccccc1-c1noc(CCn2nc(-c3ccccc3)ccc2=O)n1 | 817
COc1ccc2[nH]cc(CCN3CC(C(=O)NC4CCCC4)CC3=O)c2c1 (stereo not drawn) | 709
CCOc1cc(C(=O)N2CCCC2c2nc(-c3ccc(OC)cc3)no2)cc(OCC)c1OCC (stereo not drawn) | 1080
CCn1nccc1C(=O)Nc1nc(-c2ccc(OC)cc2OC)cs1 | 926
Cc1noc([C@@H]2CC(F)(F)CN2C(=O)c2ocnc2C)n1 | 685
COc1cccc(N2CCN(C(=O)c3cn4ccccc4n3)CC2)c1 | 644
COc1ccc(N2C(=O)C3N=NN(Cc4nc(-c5ccc6c(c5)OCO6)no4)C3C2=O)cc1OC (stereo not drawn) | 834
CN(C)CCCNc1oc(-c2ccccc2)nc1S(=O)(=O)c1ccc(F)cc1 | 692
Cc1c(Cl)cccc1NC(=O)Cn1ccc2sccc2c1=O | 764
CCN1C(=O)c2ccccc2S(=O)(=O)c2ccc(C(=O)N3CCN(c4ccccn4)CC3)cc21 | 615
Cc1oc(-c2ccc(NC(=O)C3CCCC3)cc2)nc1Cn1cccn1 | 859
Cc1nnc(NC(=O)C2CCN(C(=O)NC3CC3)CC2)s1 | 582
O=C(Cn1nc2nc(N3CCCCCC3)ccn2c1=O)Nc1cc(F)cc(F)c1 | 798
Cc1ccc(-c2nnc(-c3nc(NCCC4=CCCCC4)c4ccccc4n3)o2)cc1 | 1300
COc1cccc(-c2noc(C3CCCN3C(=O)Nc3ccc(C)cc3Cl)n2)c1 (stereo not drawn) | 1120
COc1cccc(C(=O)Nc2cc(-c3cccnc3)no2)c1 | 730

SMILES | RP-LC retention time [s]
CCOc1cc(-c2ccc(F)cc2)nc2ccc(NC(=O)C3CC3)cc12 | 721
Cn1nccc1-c1cccc(-c2noc(CNS(=O)(=O)c3ccc(Cl)cc3)n2)c1 | 902
O=C(Nc1nccs1)C1CCN(Cc2noc(-c3ccc(F)cc3)n2)CC1 | 643
COCCN1C(=O)c2cc(-c3ccc(OC)cc3)nn2CC1(C)C(=O)NCc1ccccc1 (stereo not drawn) | 834
Cc1[nH]c(C(=O)N2CCC(CC(=O)NCc3ccccc3F)CC2)c(C)c1C(=O)OC(C)C | 1030
COc1ccc(C(=O)N2CCC(c3cc(N)on3)CC2)cc1OC | 615
COCCCNC(=O)c1nc(Nc2ccc(F)cc2)c2ccccc2n1 | 696
COC(=O)c1cc(S(=O)(=O)N2CCCC2C(=O)NCc2ccc(C)cc2)cn1C (stereo not drawn) | 939
Cc1ccc(NC(=O)N2CCC(c3nc(C(=O)N4CCCC4)c(C)o3)CC2)cc1F | 835
CC(C)S(=O)(=O)c1cc2c(cc1NC(=O)c1ccc(C(F)(F)F)cc1)n(C)c(=O)n2C | 896
CC(=O)Nc1nc(-c2ccc3c(c2)NC(=O)C(C)O3)c(C)s1 (stereo not drawn) | 701
CCNc1cc(N2CCC(CCC(=O)NCc3ccccc3F)CC2)ncn1 | 646
Cc1ccc2c(c1)N(Cc1nc(-c3ccc(F)cc3)no1)C(=O)CO2 | 1060
CS(=O)(=O)N(C1CCOCC1)C1CN(C(=O)Nc2ccccc2F)C1 | 670
CCc1noc(-c2ccc(SCC(=O)N3CCCCC3)nc2)n1 | 875
Cc1noc2nc(CCC(=O)NCCCc3ccccc3)nc(N3CCCC3)c12 | 765
OCc1cc2c(cn1)[nH]c1ccccc12 | 637
CC1(CNC(=O)COc2ccc(F)cc2)CCOCC1 | 750
CCn1ccc(C(=O)N2CCC(CC(=O)NC3CC3)C2)n1 (stereo not drawn) | 630
CN(C)CCn1ccc2ccn(CC(=O)NCc3ccccc3)c(=O)c21 | 606
Cc1cc(C)n(Cc2ccc(C(=O)N3CCCN(c4cc(=O)n(C(C)C)c(=O)n4C(C)C)CC3)o2)n1 | 768
Cn1c(=O)c2cc(C(=O)NCc3cccc(C(F)(F)F)c3)nn2c2ccccc21 | 945
